{"source": "PubChem BioAssay (NCI)", "test_in_all_cases": "NCI anticancer screen, dose series, 48 h", "key": {"ACHN renal": {"system": "ACHN renal"}, "HOP-92 NSCLC": {"system": "HOP-92 NSCLC"}, "SK-MEL-2 melanoma": {"system": "SK-MEL-2 melanoma"}, "SNB-75 CNS": {"system": "SNB-75 CNS"}, "UACC-257 melanoma": {"system": "UACC-257 melanoma"}, "HCT-15 colon": {"system": "HCT-15 colon"}, "HOP-62 NSCLC": {"system": "HOP-62 NSCLC"}, "SW-620 colon": {"system": "SW-620 colon"}, "OVCAR-3 ovarian": {"system": "OVCAR-3 ovarian"}, "NCI-H522 lung": {"system": "NCI-H522 lung"}, "MALME-3M melanoma": {"system": "MALME-3M melanoma"}, "BT-549 breast": {"system": "BT-549 breast"}, "DU-145 prostate": {"system": "DU-145 prostate"}, "SF-295 CNS": {"system": "SF-295 CNS"}, "NCI-H226 lung": {"system": "NCI-H226 lung"}, "UACC-62 melanoma": {"system": "UACC-62 melanoma"}, "HCT-116 colon": {"system": "HCT-116 colon"}, "MCF7 breast": {"system": "MCF7 breast"}, "IGROV1 ovarian": {"system": "IGROV1 ovarian"}, "TK-10 renal": {"system": "TK-10 renal"}, "HCC-2998 colon": {"system": "HCC-2998 colon"}, "786-0 renal": {"system": "786-0 renal"}, "SR leukemia": {"system": "SR leukemia"}, "RXF 393 renal": {"system": "RXF 393 renal"}, "SF-539 CNS": {"system": "SF-539 CNS"}, "SF-268 CNS": {"system": "SF-268 CNS"}, "NCI-H460 lung": {"system": "NCI-H460 lung"}, "NCI/ADR-RES ovarian": {"system": "NCI/ADR-RES ovarian"}, "KM12 colon": {"system": "KM12 colon"}}, "note": "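In this assay, cells in 96-well plates receive the compound at five concentrations for 48 hours. Endpoints are linearly interpolated between the surrounding concentrations. GI50 = concentration required for 50% inhibition of growth. At the TGI there is no net growth.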", "data": [{"smiles": "O=[N+]([O-])c1ccc(Sc2ccncn2)c([N+](=O)[O-])c1", "values": [{"measurement": "GI50", "setting": "ACHN renal", "value": 2.16, "unit": "µM"}, {"measurement": "TGI", "setting": "ACHN renal", "value": 5.82, "unit": "µM"}, {"measurement": "GI50", "setting": "HOP-92 NSCLC", "value": 1.17, "unit": "µM"}, {"measurement": "TGI", "setting": "HOP-92 NSCLC", "value": 2.66, "unit": "µM"}, {"measurement": "GI50", "setting": "SK-MEL-2 melanoma", "value": 2.96, "unit": "µM"}, {"measurement": "TGI", "setting": "SK-MEL-2 melanoma", "value": 8.96, "unit": "µM"}, {"measurement": "GI50", "setting": "SNB-75 CNS", "value": 2.82, "unit": "µM"}, {"measurement": "TGI", "setting": "SNB-75 CNS", "value": 13.1, "unit": "µM"}, {"measurement": "GI50", "setting": "UACC-257 melanoma", "value": 2.81, "unit": "µM"}, {"measurement": "TGI", "setting": "UACC-257 melanoma", "value": 9.37, "unit": "µM"}, {"measurement": "GI50", "setting": "HCT-15 colon", "value": 3.07, "unit": "µM"}, {"measurement": "TGI", "setting": "HCT-15 colon", "value": 9.93, "unit": "µM"}, {"measurement": "GI50", "setting": "HOP-62 NSCLC", "value": 4.47, "unit": "µM"}, {"measurement": "TGI", "setting": "HOP-62 NSCLC", "value": 15.8, "unit": "µM"}, {"measurement": "GI50", "setting": "SW-620 colon", "value": 0.413, "unit": "µM"}, {"measurement": "TGI", "setting": "SW-620 colon", "value": 1.53, "unit": "µM"}, {"measurement": "GI50", "setting": "OVCAR-3 ovarian", "value": 1.46, "unit": "µM"}, {"measurement": "TGI", "setting": "OVCAR-3 ovarian", "value": 2.82, "unit": "µM"}, {"measurement": "GI50", "setting": "NCI-H522 lung", "value": 0.291, "unit": "µM"}, {"measurement": "TGI", "setting": "NCI-H522 lung", "value": 0.987, "unit": "µM"}, {"measurement": "GI50", "setting": "MALME-3M melanoma", "value": 1.32, "unit": "µM"}, {"measurement": "TGI", "setting": "MALME-3M melanoma", "value": 3.23, "unit": "µM"}, {"measurement": "GI50", "setting": "BT-549 breast", "value": 2.7, "unit": "µM"}, {"measurement": "TGI", "setting": "BT-549 breast", "value": 7.55, "unit": "µM"}, {"measurement": "GI50", "setting": "DU-145 prostate", "value": 2.14, "unit": "µM"}, {"measurement": "TGI", "setting": "DU-145 prostate", "value": 9.17, "unit": "µM"}, {"measurement": "GI50", "setting": "SF-295 CNS", "value": 7.29, "unit": "µM"}, {"measurement": "TGI", "setting": "SF-295 CNS", "value": 20.3, "unit": "µM"}, {"measurement": "GI50", "setting": "NCI-H226 lung", "value": 7.22, "unit": "µM"}, {"measurement": "TGI", "setting": "NCI-H226 lung", "value": 23.1, "unit": "µM"}, {"measurement": "GI50", "setting": "UACC-62 melanoma", "value": 6.32, "unit": "µM"}, {"measurement": "TGI", "setting": "UACC-62 melanoma", "value": 19.3, "unit": "µM"}, {"measurement": "GI50", "setting": "HCT-116 colon", "value": 0.726, "unit": "µM"}, {"measurement": "TGI", "setting": "HCT-116 colon", "value": 2, "unit": "µM"}, {"measurement": "GI50", "setting": "MCF7 breast", "value": 2.46, "unit": "µM"}, {"measurement": "TGI", "setting": "MCF7 breast", "value": 7.74, "unit": "µM"}, {"measurement": "GI50", "setting": "IGROV1 ovarian", "value": 2.23, "unit": "µM"}, {"measurement": "TGI", "setting": "IGROV1 ovarian", "value": 5.3, "unit": "µM"}, {"measurement": "GI50", "setting": "TK-10 renal", "value": 3.03, "unit": "µM"}, {"measurement": "TGI", "setting": "TK-10 renal", "value": 9.88, "unit": "µM"}, {"measurement": "GI50", "setting": "HCC-2998 colon", "value": 5.17, "unit": "µM"}, {"measurement": "TGI", "setting": "HCC-2998 colon", "value": 16.3, "unit": "µM"}, {"measurement": "GI50", "setting": "786-0 renal", "value": 2.24, "unit": "µM"}, {"measurement": "TGI", "setting": "786-0 renal", "value": 4.89, "unit": "µM"}, {"measurement": "GI50", "setting": "SR leukemia", "value": 0.75, "unit": "µM"}, {"measurement": "TGI", "setting": "SR leukemia", "value": 3.53, "unit": "µM"}, {"measurement": "GI50", "setting": "RXF 393 renal", "value": 3.99, "unit": "µM"}, {"measurement": "TGI", "setting": "RXF 393 renal", "value": 11.7, "unit": "µM"}, {"measurement": "GI50", "setting": "SF-539 CNS", "value": 2.32, "unit": "µM"}, {"measurement": "TGI", "setting": "SF-539 CNS", "value": 6.75, "unit": "µM"}, {"measurement": "GI50", "setting": "SF-268 CNS", "value": 2.75, "unit": "µM"}, {"measurement": "TGI", "setting": "SF-268 CNS", "value": 10.2, "unit": "µM"}, {"measurement": "GI50", "setting": "NCI-H460 lung", "value": 3.18, "unit": "µM"}, {"measurement": "TGI", "setting": "NCI-H460 lung", "value": 10.8, "unit": "µM"}, {"measurement": "GI50", "setting": "NCI/ADR-RES ovarian", "value": 4.46, "unit": "µM"}, {"measurement": "TGI", "setting": "NCI/ADR-RES ovarian", "value": 14.1, "unit": "µM"}, {"measurement": "GI50", "setting": "KM12 colon", "value": 2.75, "unit": "µM"}, {"measurement": "TGI", "setting": "KM12 colon", "value": 9, "unit": "µM"}]}]}
